According to PMC5755735, “Discovery of indolylpiperazinylpyrimidines with dual-target profiles at adenosine A2A and dopamine D2 receptors for Parkinson's disease treatment” (PLoS ONE, 2018):

Legend:
[1] = test system: TAMH (TGF-α overexpressing mouse hepatocytes); test: cell viability assay in TAMH hepatocytes (Cell-Titer-Glo); assay type: cell-based; conditions: concentrations less than 30 μM, 24 h
Protocol: (§1) Besides the mutagenicity study, compounds 5 and 6 were also subjected to cell viability assays using transforming growth factor-alpha mouse hepatocyte (TAMH) and HL-1 cardiomyocyte to assess the cytotoxic potential. TAMH lines were treated with compounds 5 and 6 in eight different concentrations (100 μM, 33.3 μM, 11.1 μM, 3.7 μM, 1.23 μM, 0.41 μM, 0.13 μM, 0.045 μM), and the percentage of viable cells was plotted against the logarithm of ligand concentration (S10B and S10C Fig). […] Acetaminophen, a drug with direct hepatotoxic potential, was used as the positive control in this assay (S10A Fig). […] Doxorubicin, a chemotherapeutic agent known to cause dose-dependent cardiotoxicity, was used as the positive control in this assay (S10D Fig).
(§2) Immortalised hepatocyte and cardiomyocyte cell lines, TAMH (TGF-α overexpressing mouse hepatocytes) and HL-1 were used respectively as models for in vitro toxicity studies. Both cell lines were cultured in accordance with previously described methods. […] The cell-reagent mixture was transferred to a solid white flat-bottom 96-well plate (Greiner 655207) for luminescence reading. Luminescence was recorded with an integration time of 0.25 second with a Tecam Infinite® M200 Microplate reader. Data are expressed as percentage of viable cells compared to DMSO-treated controls. […]

[2] = target: T1, human A3 receptors expressed in CHO cells (Homo sapiens, UniProt P0DMS8); test: competition binding at human A3 adenosine receptors ([3H]HEMADO displacement); conditions: displacement of [3H]HEMADO, 95% confidence limits, n = 3–6, read-out: Ki hA3
T1 sequence (P0DMS8 1-318): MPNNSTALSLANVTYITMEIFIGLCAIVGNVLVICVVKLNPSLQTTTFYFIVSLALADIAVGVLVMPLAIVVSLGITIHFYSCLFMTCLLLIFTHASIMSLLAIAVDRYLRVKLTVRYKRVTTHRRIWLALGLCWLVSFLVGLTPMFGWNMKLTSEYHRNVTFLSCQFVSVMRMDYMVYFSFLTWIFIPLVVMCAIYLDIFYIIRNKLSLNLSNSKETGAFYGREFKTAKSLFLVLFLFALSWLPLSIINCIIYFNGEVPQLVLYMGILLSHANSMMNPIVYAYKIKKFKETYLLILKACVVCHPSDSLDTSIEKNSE
Protocol: A two-step procedure was adopted to prepare membrane for radioligand binding from cells stably transfected with human adenosine receptor subtypes (hA1, hA2A and hA3 expressed on CHO cells). Firstly, cell fragments and nuclei were removed by using low-speed centrifugation (1,000 g for 10 min). After that, crude membrane fraction from supernatant was then sedimented at 100,000 g for 30 min. The membrane pellet was subsequently re-suspended in the specific binding buffer, frozen in liquid nitrogen and stored at -80°C. For measurement of adenylyl cyclase activity in the hA2B receptors, one-step centrifugation procedure was used; the homogenate was sedimented for 30 min at 54,000 g. The so-obtained crude membrane pellet was re-suspended in 50 mM Tris/HCl, pH 7.4 and used for the adenylyl cyclase assay immediately.
Non-specific binding was determined using theophylline 1 mM. […] Non-specific binding was determined using N^6-R-phenylisopropyl adenosine (R-PIA) 100 μM. ^41 The binding of [^3H]HEMADO to CHO cells transfected with hA3 adenosine receptors was carried out as described earlier. […] Non-specific binding was determined using R-PIA 100 μM.
The assay mixture was then filtered through the built-in filter at the bottom of the 96-well microplate filtration system (Millipore Multiscreen MAFC) and washed three times with 200 μL of cold buffer. After addition of 20 μL of scintillator to the dried filter plates, the filter bound radioactivity was counted on a Wallac Micro-Beta counter. All Ki values were calculated by non-linear curve fitting with the program SCTFIT [45].

HL-1 cardiomyocyte = test: cell viability assay in HL-1 cardiomyocytes (Cell-Titer-Glo); assay type: cell-based; conditions: concentrations less than 30 μM, 24 h
Protocol: as §1, §2

Row | SMILES | cytotoxicity (cell viability) [1] | Ki [2] | cytotoxicity (cell viability) (HL-1 cardiomyocyte)
1 | Cc1cc(C)nc(N2CCN(C(=O)c3c[nH]c4ccccc34)CC2)n1 [Compound 5, 3‐[4‐(4,6‐Dimethylpyrimidin‐2‐yl)piperazine‐1‐carbonyl]‐1H‐indole] | non-cytotoxic | > 100 µM | no toxicity observed
2 | Cc1cc(C)nc(N2CCN(C(=O)Cc3c(C)[nH]c4ccccc34)CC2)n1 [Compound 6, 1‐[4‐(4,6‐Dimethylpyrimidin‐2‐yl)piperazin‐1‐yl]‐2‐(2‐methyl‐1H‐indol‐3‐yl)ethan‐1‐one] | non-cytotoxic | > 100 µM | no toxicity observed
